Key:
mouse SKH2 [1] = assay: In vivo pro-pigmenting activity by topical route with NB-UVB, clinical score of pigmentation; conditions: 8% topical on the back of SKH2 mice, 43 days, in combination with NB-UVB irradiation (60 mJ/cm2); versus irradiated group treated with the vehicle
Procedure: (§1) In mice, melanocytes are not present in the epidermis of hair-covered areas but are mainly present in the hair follicles. Pigmentation can be induced by irradiation with UVB in combination with topical or oral agents. The pigmentation changes can be quantified by various means such as clinical score pigmentation and pigmentation measurement by image analysis.
(§2) The evaluation of the MC1R receptor agonists pro-pigmenting activity in combination with NB-UVB irradiation (60 mJ/cm2) is performed by topical application on the back of the mouse SKH2 during 43 days with MC1R agonist compound A at 8% or MC1R agonist compound B at 8% in combination with NB-UVB radiation.
(§3) Practically, the animals were irradiated using the system Biospectra equipped NB-UVB lamps (peak emission maximum at 312 nm) irradiation at 3 times per week at 60 mJ/cm^2 on Monday, Wednesday and Friday. The treatment is carried out 5 days a week and 50 μl of the test product (compounds A or B) is diluted in the vehicle and applied on the back. In the case of associations with radiation, the compounds are administered after irradiation.
(§4) Then, the pigmentation changes is quantified by clinical score pigmentation and pigmentation measurement by image analysis.
The clinical score of animals is performed 1 time per week before irradiation. The pigmentation is evaluated with a score on a scale of 0 to 4. […]

mouse SKH2 [2] = assay: In vivo pro-pigmenting activity by topical route with NB-UVB, quantification of pigmentation by image analysis at the end of study; conditions: 8% topical on the back of SKH2 mice, in combination with NB-UVB irradiation (60 mJ/cm2)
Procedure: as §1, §2, §3, §4
At the end of the study, for each animal, two digital photographs of the skin of the back are made with a high quality dermascope and digital camera such as the LiteScope™. […]

COc1ccc(C[C@@H](NC(=O)CCc2nc[nH]c2C)C(=O)N2CC(OCC3CC3)(c3ccccc3C)C2)cc1 [compound B, N—[(R)-2-(3-Cyclopropylmethoxy-3-o-tolyl-azetidin-1-yl)-1-(4-methoxy-benzyl)-2-oxo-ethyl]-3-(5-methyl-1H-imidazol-4-yl)-propionamide]
pigmentation of the skin (clinical score of pigmentation, FIGS. 1 and 2) (mouse SKH2 [1]): significantly increases the pigmentation of the skin

CCOC(=O)C1(C2CCCCC2)CCN(C(=O)[C@@H](Cc2ccc(OC)cc2)NC(=O)NCCc2c[nH]cn2)CC1 [Compound A, 4-Cyclohexyl-1-[(R)-2-{3-[2-(1H-imidazol-4-yl)-ethyl]-ureido}-3-(4-methoxy-phenyl)-propionyl]-piperidine-4-ethyl-carboxylate]
pigmentation level at the end of the study by image analysis (FIG. 3) (mouse SKH2 [2]): synergistic effect is confirmed
pigmentation of the skin (clinical score of pigmentation, FIGS. 1 and 2) (mouse SKH2 [1]): significantly increases the pigmentation of the skin
